What was measured:
hENPP2 [1] = target: T1, hENPP2 (UniProtKB/SwissProt Q13822) (Homo sapiens (Human), UniProt Q13822); experiment: hENPP2 biochemical assay, LPC as substrate; settings: LPC (palmitoyl 16:0) as substrate
Procedure, shortened: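 Human ENPP2 in 50 mM Tris-HCl pH 8.5, 500 mM NaCl, 5 mM KCl, 10 mM CaCl2, 0.1% fatty-acid-free BSA, reacted 30 min at 37 °C with LPC 16:0 (150 µM solution added 1:1). Released choline measured via choline oxidase/peroxidase/TOOS/4-aminoantipyrine quinoneimine dye at 555 nm; IC50 reported.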

hENPP2 [2] = target: T1, hENPP2; experiment: fluorescent hENPP2 biochemical assay, FS-3 as substrate; settings: read-out: FS3-IC50
Procedure, shortened: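 IC50 values come from fluorescence gained as FS-3 is hydrolysed (ex 485, em 520 nm). The reaction, started by adding 0.75 μM FS-3 solution, runs 30 min at 30° C after a 30 min room-temperature preincubation of compound with enzyme. Buffer: Tris-HCl pH 8.0 with NaCl, KCl, MgCl2, CaCl2 and 0.1% BSA.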

LPA 18:2 in rat plasma = experiment: Rat whole blood (plasma) LPA assay; format: biochemical; settings: 2 h at 37 C, LPA 18:2 by LC-MS/MS
Procedure: Whole blood is collected from rats or mouse by exsanguinations on sodium heparin tube, then after centrifugation at 3000 rpm for 15 min at 4° C., plasma is stored at −80° C. Compounds are diluted in DMSO in concentration dependent manner then 0.5 μL are dispensed into 96-well plate placed in ice. Plasma is defrosted on ice then 49.5 μL of plasma are added into the well containing 0.5 μL of compound (1% DMSO final). Plates are covered with a lid in polypropylene and incubated at +37° C., 5% CO2, for 2 h under gentle shaking (except controls which are stored at −20° C.).
At the end of the incubation, controls are defrosted in ice and transferred in the incubated plates for LC-MS/MS analysis with a non GLP-validated method. For the analysis, plasma proteins from a 10 μL incubated plates are precipitated with an excess of methanol containing the internal standard, LPA 17:0. After centrifugation, the corresponding supernatant is injected on a C18 column. Analytes are eluted out of the column under isocratic conditions. An API5500 QTRAP mass spectrometer (ABSciex™) is used for the detection of LPA 18:2. No calibration curve is prepared for LPA 18:2, however relative quantities are evaluated based on the peak area.

| SMILES | IC50 (hENPP2 [1]) | IC50 (hENPP2 [2]) | IC50 (LPA 18:2 in rat plasma) |
| --- | --- | --- | --- |
| CN(C)C(=O)CN1CCC(c2ccc3nc(CCC#N)c(N(C)c4nc(-c5ccc(F)cc5)cs4)n3c2)CC1 [Compound 174, 2-(4-(2-(2-cyanoethyl)-3-((4-(4-fluorophenyl)thiazol-2-yl)(methyl)amino)imidazo[1,2-a]pyridin-6-yl)piperidin-1-yl)-N,N-dimethylacetamide] | 0.01 to 100 nM | 0.01 to 100 nM | 0.01 to 100 nM |
| CCc1nc2ccc(N3CCN(S(=O)(=O)CCCO)CC3)cn2c1N(C)c1nc(-c2ccc(F)cc2)cs1 [Compound 58, 3-(4-(2-ethyl-3-((4-(4-fluorophenyl)thiazol-2-yl)(methyl)amino)imidazo[1,2-a]pyridin-6-yl)piperazin-1-ylsulfonyl)propan-1-ol] | > 1000 nM | 0.01 to 100 nM | > 1000 nM |
| CCc1nc2ccc(N3CCN(C(=O)CCCN(C)C)CC3)cn2c1N(C)c1nc(-c2ccc(F)cc2)cs1 [Compound 53, 4-(dimethylamino)-1-(4-(2-ethyl-3-((4-(4-fluorophenyl)thiazol-2-yl)(methyl)amino)imidazo[1,2-a]pyridin-6-yl)piperazin-1-yl)butan-1-one] | > 1000 nM | 0.01 to 100 nM | > 1000 nM |
| CCc1nc2ccc(C3CCN(CC(=O)N4CC[C@H](O)C4)CC3)cn2c1N(C)c1nc(-c2ccc(F)cc2)c(C#N)s1 [Compound 143, (S)-2-((2-ethyl-6-(1-(2-(3-hydroxypyrrolidin-1-yl)-2-oxoethyl)piperidin-4-yl)imidazo[1,2-a]pyridin-3-yl)(methyl)amino)-4-(4-fluorophenyl)thiazole-5-carbonitrile] | 0.01 to 100 nM | 0.01 to 100 nM | 0.01 to 100 nM |
| CCc1nc2ccc(C3CCN(CC(=O)N4CCCC4)CC3)cn2c1N(C)c1nc(-c2ccc(F)cc2)cs1 [Compound 115, 2-(4-(2-ethyl-3-((4-(4-fluorophenyl)thiazol-2-yl)(methyl)amino)imidazo[1,2-a]pyridin-6-yl)piperidin-1-yl)-1-(pyrrolidin-1-yl)ethanone] | 0.01 to 100 nM | 0.01 to 100 nM | 0.01 to 100 nM |
| CCc1nc2c(C)cc(N3CCN(CC(=O)N4CC[C@H](O)C4)CC3)cn2c1N(C)c1nc(-c2ccc(F)cc2)c(C#N)s1 [Compound 5, (S)-2-((2-ethyl-6-(4-(2-(3-hydroxypyrrolidin-1-yl)-2-oxoethyl)piperazin-1-yl)-8-methylimidazo[1,2-a]pyridin-3-yl)(methyl)amino)-4-(4-fluorophenyl)thiazole-5-carbonitrile] | 100 to 500 nM | 0.01 to 100 nM | 500 to 1000 nM |
| CCc1nc2ccc(N3CCN(Cc4ncco4)CC3)cn2c1N(C)c1nc(-c2ccc(F)cc2)cs1 [Compound 40] | > 1000 nM | 0.01 to 100 nM | 500 to 1000 nM |
| CCc1nc2ccc(N3CCN(CC(=O)N4CC(O)C4)CC3)cn2c1N(C)c1nc(-c2ccc(F)cc2C#N)c(C)s1 [Compound 162, 2-(2-((2-ethyl-6-(4-(2-(3-hydroxyazetidin-1-yl)-2-oxoethyl)piperazin-1-yl)imidazo[1,2-a]pyridin-3-yl)(methyl)amino)-5-methylthiazol-4-yl)-5-fluorobenzonitrile] | 100 to 500 nM | 0.01 to 100 nM | 100 to 500 nM |
| CCc1nc2ccc(N3CCN(C(=O)[C@H](C)O)CC3)cn2c1N(C)c1nc(-c2ccc(F)cc2)cs1 [Compound 203, (S)-1-(4-(2-ethyl-3-((4-(4-fluorophenyl)thiazol-2-yl)(methyl)amino)imidazo[1,2-a]pyridin-6-yl)piperazin-1-yl)-2-hydroxypropan-1-one] | > 1000 nM | 0.01 to 100 nM | > 1000 nM |
| CCc1nc2ccc(N3CCN(CC(=O)N4CC(O)C4)CC3)cn2c1N(C)c1nc(-c2ccc(F)cc2C#N)cs1 [Compound 166, 2-(2-((2-ethyl-6-(4-(2-(3-hydroxyazetidin-1-yl)-2-oxoethyl)piperazin-1-yl)imidazo[1,2-a]pyridin-3-yl)(methyl)amino)thiazol-4-yl)-5-fluorobenzonitrile] | 0.01 to 100 nM | 0.01 to 100 nM | 500 to 1000 nM |

Source: patent US9670204B2, “Compounds and pharmaceutical compositions thereof for the treatment of inflammatory disorders” (Galapagos NV, priority 2013, dated 2017)
